Reference: US9242999B2, “Cephem compound having pyridinium group” (priority 2011, dated 2016)
In brackets after ≈: the same amount, converted by molar mass.

How the values were obtained:
Format in all cases: cell-based
A. baumannii SR27323 = assay: MIC, CLSI broth microdilution, cation-adjusted Mueller Hinton broth with human apo-transferrin (Test Example 1); settings: inoculum 5×10^5 cfu/mL; for MIC: Acinetobacter baumannii, SR27323, Table 2, OXA-23, OXA-58 carbapenemase producing strain, read-out: Minimum Inhibitory Concentration (MIC) A. baumannii SR27323; for Minimum Inhibitory Concentration (MIC) A. baumannii SR27323: Table 2, OXA-23, OXA-58 carbapenemase producing strain
Procedure: (§1) Measurement of Minimum Inhibitory Concentration (MIC: μg/mL) was conducted according to CLSI (Clinical and Laboratory Standards Institute) method, and the amount of bacteria for inoculation was 5×10^5 cfu/mL, and cation-adjusted Mueller Hinton broth containing human apo-transferrin was used as a test medium, and the experiment was conducted using broth microdilution method. The bacteria used are listed below.

E. coli ATCCBAA-199 = assay: as above; settings: inoculum 5×10^5 cfu/mL; for MIC: Escherichia coli, ATCCBAA199, Table 2, SHV-3 ESBL producing strain, read-out: Minimum Inhibitory Concentration (MIC) E. coli ATCC BAA-199
Procedure: as §1

E. coli ATCCBAA-200 [1] = assay: as above; settings: inoculum 5×10^5 cfu/mL; for MIC: Escherichia coli, ATCCBAA200, Table 2, SHV-4 ESBL producing strain, read-out: Minimum Inhibitory Concentration (MIC) E. coli ATCC BAA-200
Procedure: as §1

[2] = test system: K. pneumoniae ATCCBAA-1705; assay: as above; settings: inoculum 5×10^5 cfu/mL; for MIC: Klebsiella pneumoniae, ATCCBAA1705, Table 2, KPC-2 carbapenemase producing strain, read-out: Minimum Inhibitory Concentration (MIC) K. pneumoniae ATCC BAA-1705
Procedure: as §1

P. aeruginosa SR24 = assay: as above; settings: no enzyme, inoculum 5×10^5 cfu/mL; for MIC: Pseudomonas aeruginosa, SR24, Table 2, ceftazidime resistance strain, read-out: Minimum Inhibitory Concentration (MIC) P. aeruginosa SR24; for Minimum Inhibitory Concentration (MIC) P. aeruginosa SR24: Table 2, ceftazidime resistance strain
Procedure: as §1

P. aeruginosa SR27060 = assay: as above; settings: inoculum 5×10^5 cfu/mL; for MIC: Pseudomonas aeruginosa, SR27060, Table 2, IMP-1 MBL producing strain (carbapenem resistance strain), read-out: Minimum Inhibitory Concentration (MIC) P. aeruginosa SR27060
Procedure: as §1

E. cloacae NCTC13464 = assay: MIC, CLSI broth microdilution, cation-adjusted iso-sensitest broth with human apo transferrin (Test Example 2); settings: Enterobacter cloacae, Table 5, CTX-M group 9 ESBL producing strain, inoculum 5×10^5 cfu/mL, read-out: Minimum Inhibitory Concentration (MIC) E. cloacae NCTC 13464
Procedure: as §1, with “iso-sensitest” for “Mueller Hinton”, “apo transferrin” for “apo-transferrin”

E. coli ATCCBAA-196 = assay: as above; settings: Escherichia coli, ATCCBAA196, Table 5, TEM-10 ESBL producing strain, inoculum 5×10^5 cfu/mL, read-out: Minimum Inhibitory Concentration (MIC) E. coli ATCC BAA-196
Procedure: as §1, with “iso-sensitest” for “Mueller Hinton”, “apo transferrin” for “apo-transferrin”

E. coli ATCCBAA-200 [3] = assay: as above; settings: Escherichia coli, ATCCBAA200, Table 5, SHV-4 ESBL producing strain, inoculum 5×10^5 cfu/mL, read-out: Minimum Inhibitory Concentration (MIC) E. coli ATCC BAA-200
Procedure: as §1, with “iso-sensitest” for “Mueller Hinton”, “apo transferrin” for “apo-transferrin”

Row | MIC (A. baumannii SR27323) [µg/mL] | MIC (E. coli ATCCBAA-199) [µg/mL] | MIC (E. coli ATCCBAA-200 [1]) [µg/mL] | MIC [2] [µg/mL] | MIC (P. aeruginosa SR24) [µg/mL] | MIC (P. aeruginosa SR27060) [µg/mL] | Minimum Inhibitory Concentration (MIC) A. baumannii SR27323 (A. baumannii SR27323) | Minimum Inhibitory Concentration (MIC) E. coli ATCC BAA-199 (E. coli ATCCBAA-199; Table 2, SHV-3 ESBL producing strain) | Minimum Inhibitory Concentration (MIC) E. coli ATCC BAA-200 (E. coli ATCCBAA-200 [1]; Table 2, SHV-4 ESBL producing strain) | Minimum Inhibitory Concentration (MIC) K. pneumoniae ATCC BAA-1705 ([2]; Table 2, KPC-2 carbapenemase producing strain) | Minimum Inhibitory Concentration (MIC) P. aeruginosa SR24 (P. aeruginosa SR24) [µg/mL] | Minimum Inhibitory Concentration (MIC) P. aeruginosa SR27060 (P. aeruginosa SR27060; Table 2, IMP-1 MBL producing strain (carbapenem resistance strain)) [μg/ml] | MIC (E. cloacae NCTC13464) [µg/mL] | MIC (E. coli ATCCBAA-196) [µg/mL] | MIC (E. coli ATCCBAA-200 [3]) [µg/mL] | Structure (SMILES)
1 | 0.5 (≈ 0.686 µM) | 1 (≈ 1.37 µM) | 2 (≈ 2.74 µM) | 0.25 (≈ 0.343 µM) | 0.25 (≈ 0.343 µM) | > 32 |  |  |  |  |  |  |  |  |  | CC(C)(O/N=C(\C(=O)N[C@@H]1C(=O)N2C(C(=O)[O-])=C(CSc3cc[n+](CC(=O)c4ccc(O)c(O)c4)cc3)CS[C@H]12)c1csc(N)n1)C(=O)O [Comparative Compound 1, reference compound]
2 |  |  |  |  |  |  | 1 µg/mL | ≦0.031 μg/ml | ≦0.031 μg/ml | ≦0.031 μg/ml | 0.25 | 1. |  |  |  | CC(C)(O/N=C(\C(=O)N[C@@H]1C(=O)N2C(c3nnn[n-]3)=C(CSc3cc[n+](Cc4ccc(O)c(O)c4)cc3)CS[C@H]12)c1csc(N)n1)C(=O)O [Compound I-1]
3 |  | ≤ 0.031 | ≤ 0.031 | ≤ 0.031 |  | 0.5 (≈ 0.69 µM) | ≦0.031 μg/ml |  |  |  | 0.063 |  |  |  |  | CC(C)(O/N=C(\C(=O)N[C@@H]1C(=O)N2C(c3nnn[n-]3)=C(CSc3cc[n+](Cc4ccc(O)c(O)c4)cc3)CS[C@H]12)c1csc(N)n1)C(=O)O [Compound I-2]
4 | 1 (≈ 1.33 µM) | 0.125 (≈ 0.166 µM) | 0.25 (≈ 0.332 µM) | ≤ 0.031 | 0.125 (≈ 0.166 µM) | 2 (≈ 2.65 µM) |  |  |  |  |  |  |  |  |  | CC(C)(O/N=C(\C(=O)N[C@@H]1C(=O)N2C(c3nnn[n-]3)=C(CSc3cc[n+](CC(=O)c4ccc(O)c(O)c4)cc3)CS[C@H]12)c1nsc(N)n1)C(=O)O [Compound I-4]
5 | 0.5 (≈ 0.647 µM) | ≤ 0.031 | 0.063 (≈ 0.0815 µM) | ≤ 0.031 | 0.125 (≈ 0.162 µM) | 1 (≈ 1.29 µM) |  |  |  |  |  |  |  |  |  | C[C@H](O/N=C(\C(=O)N[C@@H]1C(=O)N2C(c3nnn[n-]3)=C(CSc3cc[n+](CC(=O)c4ccc(O)c(O)c4)cc3)CS[C@H]12)c1nc(N)sc1Cl)C(=O)O [Compound I-5]
6 | 0.125 (≈ 0.176 µM) | ≤ 0.031 | ≤ 0.031 | ≤ 0.031 | 0.063 (≈ 0.0886 µM) |  |  |  |  |  |  |  |  |  |  | CC(C)(O/N=C(\C(=O)N[C@@H]1C(=O)N2C(c3nnn[n-]3)=C(CSc3cc[n+](-c4ccc(O)c(O)c4)cc3)CS[C@H]12)c1csc(N)n1)C(=O)O [Compound I-6]
7 | 2 (≈ 2.6 µM) | ≤ 0.031 | ≤ 0.031 | ≤ 0.031 | 0.5 (≈ 0.65 µM) | 4 (≈ 5.2 µM) |  |  |  |  |  |  |  |  |  | CC(C)(O/N=C(\C(=O)N[C@@H]1C(=O)N2C(c3nnn[n-]3)=C(CSc3cc[n+](CC(=O)c4ccc(O)c(O)c4)cc3)C[S+]([O-])[C@H]12)c1csc(N)n1)C(=O)O (some centres unmarked) [Compound I-7]
8 | 2 (≈ 2.64 µM) | 0.063 (≈ 0.0832 µM) | 0.25 (≈ 0.33 µM) | ≤ 0.031 | 0.25 (≈ 0.33 µM) | 16 (≈ 21.1 µM) |  |  |  |  |  |  |  |  |  | C[C@H](O/N=C(\C(=O)N[C@@H]1C(=O)N2C(c3nnn[n-]3)=C(CSc3cc[n+](CC(=O)c4ccc(O)c(O)c4)cc3)CO[C@H]12)c1nc(N)sc1Cl)C(=O)O [Compound I-8]
9 |  |  |  |  |  |  |  |  |  |  |  |  | 0.125 | ≤ 0.031 | ≤ 0.031 | CC(C)(O/N=C(\C(=O)N[C@@H]1C(=O)N2C(c3nnn[n-]3)=C(CSc3cc[n+](CC(=O)c4ccc(O)c(O)c4Cl)cc3)CS[C@H]12)c1nc(N)sc1Cl)C(=O)[O-].[Na+] [Compound I-15]
10 |  |  |  |  |  |  |  |  |  |  |  |  | 0.063 | 0.125 | 0.125 | CC(C)(O/N=C(\C(=O)N[C@@H]1C(=O)N2C(c3nnn[n-]3)=C(CSc3cc[n+](-c4ccc(O)c(O)c4Cl)cc3)CS[C@H]12)c1nsc(N)n1)C(=O)[O-].[Na+] [Compound I-17]
